# Measured values taken from patent US20260356830A1, “COMPOUNDS FOR MODULATING RET PROTEIN” (Bristol-Myers Squibb Company, priority 2022, published 2026).
# Target: T1, CCDC6-RET (Homo sapiens, UniProt P07949+Q16204+Q96SW2)
# T1 construct: CCDC6 (natural N-terminal fusion partner, UniProt Q16204); endogenous in cells; host or cells: TPC-1 (parental, papillary thyroid carcinoma)
# Assay: Cellular RET degradation, AlphaLISA, TPC-1 cell line
# Assay type: cell-based
# Conditions: for Dmax: TPC1, human, 24 h, read-out: Cell Density TPC-1/CCDC6-RET Ymax %; for DC50: read-out: Cell Density TPC-1/CCDC6-RET DC50, half-maximal degradation concentration, TPC-1 (CCDC6-RET), 24 hrs
# Procedure, shortened: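 Luminescent AlphaLISA read of RET abundance in lysates after 24 h compound exposure (37 °C, 2% FBS DMEM) of CCDC6-RET-bearing TPC-1 cells. % degradation relative to DMSO (high) and media (low) controls, fitted to 4-parameter logistic curve for DC50 and Ymax.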
# T1 sequence (Q16204+P07949 fused): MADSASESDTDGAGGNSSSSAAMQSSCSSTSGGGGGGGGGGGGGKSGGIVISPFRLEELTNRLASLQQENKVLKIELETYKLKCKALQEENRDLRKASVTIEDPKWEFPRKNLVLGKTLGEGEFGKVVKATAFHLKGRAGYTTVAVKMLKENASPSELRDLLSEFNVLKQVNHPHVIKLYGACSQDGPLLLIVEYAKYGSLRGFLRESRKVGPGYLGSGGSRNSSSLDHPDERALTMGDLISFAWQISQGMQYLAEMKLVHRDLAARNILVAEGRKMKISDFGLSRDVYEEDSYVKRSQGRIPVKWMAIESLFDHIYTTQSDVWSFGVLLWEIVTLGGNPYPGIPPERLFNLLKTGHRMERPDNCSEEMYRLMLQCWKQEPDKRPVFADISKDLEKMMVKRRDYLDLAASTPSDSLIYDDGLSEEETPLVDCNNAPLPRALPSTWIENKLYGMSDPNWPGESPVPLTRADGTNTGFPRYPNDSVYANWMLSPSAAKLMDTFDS
# T1 sequence (Q96SW2 whole entry, the tested form may be a part): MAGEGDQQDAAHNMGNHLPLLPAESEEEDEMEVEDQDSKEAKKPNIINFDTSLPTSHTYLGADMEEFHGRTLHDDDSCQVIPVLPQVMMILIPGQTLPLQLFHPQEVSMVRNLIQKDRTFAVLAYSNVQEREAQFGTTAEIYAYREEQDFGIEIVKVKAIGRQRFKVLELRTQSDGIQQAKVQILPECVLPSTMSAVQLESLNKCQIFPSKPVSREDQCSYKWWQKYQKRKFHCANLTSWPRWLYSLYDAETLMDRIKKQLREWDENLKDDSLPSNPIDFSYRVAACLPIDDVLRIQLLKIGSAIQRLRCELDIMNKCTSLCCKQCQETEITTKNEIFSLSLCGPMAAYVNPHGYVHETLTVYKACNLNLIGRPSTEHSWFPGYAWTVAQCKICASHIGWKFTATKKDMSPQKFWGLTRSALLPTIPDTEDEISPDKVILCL
# T1 sequence (Q16531 whole entry partner, the tested form may be a part): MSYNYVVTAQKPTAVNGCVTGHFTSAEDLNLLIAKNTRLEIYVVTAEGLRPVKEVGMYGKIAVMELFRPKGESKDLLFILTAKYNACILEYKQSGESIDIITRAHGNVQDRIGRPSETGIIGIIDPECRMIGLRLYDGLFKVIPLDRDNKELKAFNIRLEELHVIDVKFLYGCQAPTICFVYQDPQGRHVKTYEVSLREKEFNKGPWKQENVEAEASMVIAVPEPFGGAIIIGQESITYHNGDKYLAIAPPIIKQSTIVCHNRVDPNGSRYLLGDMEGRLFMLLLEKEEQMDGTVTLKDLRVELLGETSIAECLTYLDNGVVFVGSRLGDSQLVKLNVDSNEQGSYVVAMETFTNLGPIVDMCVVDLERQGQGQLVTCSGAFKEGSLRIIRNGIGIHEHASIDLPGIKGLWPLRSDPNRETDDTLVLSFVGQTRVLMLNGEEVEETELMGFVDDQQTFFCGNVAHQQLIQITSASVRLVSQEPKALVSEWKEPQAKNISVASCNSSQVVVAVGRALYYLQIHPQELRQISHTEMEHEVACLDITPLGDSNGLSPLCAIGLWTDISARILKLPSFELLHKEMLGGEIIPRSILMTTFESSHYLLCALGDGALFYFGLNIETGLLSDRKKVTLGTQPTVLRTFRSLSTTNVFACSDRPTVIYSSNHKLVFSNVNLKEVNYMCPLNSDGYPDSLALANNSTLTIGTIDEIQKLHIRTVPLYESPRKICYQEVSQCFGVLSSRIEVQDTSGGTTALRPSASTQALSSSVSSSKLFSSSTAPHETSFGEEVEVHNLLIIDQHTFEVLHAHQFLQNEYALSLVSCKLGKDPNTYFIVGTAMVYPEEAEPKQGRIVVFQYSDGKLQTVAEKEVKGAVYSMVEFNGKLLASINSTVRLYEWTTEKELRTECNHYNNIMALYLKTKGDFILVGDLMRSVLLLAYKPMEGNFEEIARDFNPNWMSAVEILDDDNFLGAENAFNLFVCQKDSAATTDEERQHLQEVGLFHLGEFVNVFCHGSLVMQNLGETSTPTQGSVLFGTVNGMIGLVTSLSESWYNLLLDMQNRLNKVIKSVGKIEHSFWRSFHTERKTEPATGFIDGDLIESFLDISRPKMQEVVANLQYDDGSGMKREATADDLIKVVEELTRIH
SMILES,Dmax [%],DC50 [nM]
"CCOc1cc(-c2ccc(N3CCC(CN4CCN(CCOCCOCCC(=O)Nc5ccc6c(N7CCC(=O)NC7=O)nn(C)c6c5)CC4)(NC(=O)c4cc(F)ccc4F)CC3)nc2)c2c(C#N)cnn2c1 [Example 108, N-[1-(5-{3-cyano-6-ethoxypyrazolo[1,5-a]pyridin-4-yl}pyridin-2-yl)-4-[(4-{2-[2-(2-{[3-(2,4-dioxo-1,3-diazinan-1-yl)-1-methyl-1H-indazol-6-yl]carbamoyl}ethoxy)ethoxy]ethyl}piperazin-1-yl)methyl]piperidin-4-yl]-2,5-difluorobenzamide]",60 to 90,10 to 100
"CCOc1cc(-c2ccc(N3CCC(CN4CCN(CCOCCOCCC(=O)N5CCN(c6ccc7c(c6)CN(C6CCC(=O)NC6=O)C7=O)CC5)CC4)(NC(=O)c4cc(F)ccc4F)CC3)nc2)c2c(C#N)cnn2c1 (stereo not drawn) [Example 109, N-[1-(5-{3-cyano-6-ethoxypyrazolo[1,5-a]pyridin-4-yl}pyridin-2-yl)-4-[(4-{2-[2-(3-{4-[2-(2,6-dioxopiperidin-3-yl)-1-oxo-2,3-dihydro-1H-isoindol-5-yl]piperazin-1-yl}-3-oxopropoxy)ethoxy]ethyl}piperazin-1-yl)methyl]piperidin-4-yl]-2,5-difluorobenzamide]",60 to 90,10 to 100
"CCOc1cc(-c2ccc(N3CCC(CN4CCN(CC5CCN(C(=O)c6ccc7c(c6)C(=O)N(C6CCC(=O)NC6=O)C7)CC5)CC4)(NC(=O)c4cc(F)ccc4F)CC3)nc2)c2c(C#N)cnn2c1 (stereo not drawn) [Example 110, N-[1-(5-{3-cyano-6-ethoxypyrazolo[1,5-a]pyridin-4-yl}pyridin-2-yl)-4-{[4-({1-[2-(2,6-dioxopiperidin-3-yl)-3-oxo-2,3-dihydro-1H-isoindole-5-carbonyl]piperidin-4-yl}methyl)piperazin-1-yl]methyl}piperidin-4-yl]-2,5-difluorobenzamide]",60 to 90,2 to 10
"CCOc1cc(-c2ccc(N3CCC(CN4CCN(CC5CCN(C(=O)Cc6cccc7c6CN(C6CCC(=O)NC6=O)C7=O)CC5)CC4)(NC(=O)c4cc(F)ccc4F)CC3)nc2)c2c(C#N)cnn2c1 (stereo not drawn) [Example 111, N-[1-(5-{3-cyano-6-ethoxypyrazolo[1,5-a]pyridin-4-yl}pyridin-2-yl)-4-({4-[(1-{2-[2-(2,6-dioxopiperidin-3-yl)-1-oxo-2,3-dihydro-1H-isoindol-4-yl]acetyl}piperidin-4-yl)methyl]piperazin-1-yl}methyl)piperidin-4-yl]-2,5-difluorobenzamide]",60 to 90,2 to 10
"CCOc1cc(-c2ccc(N3CCC(CN4CCN(CC5CCN(C(=O)Cc6ccc7c(c6)CN(C6CCC(=O)NC6=O)C7=O)CC5)CC4)(NC(=O)c4cc(F)ccc4F)CC3)nc2)c2c(C#N)cnn2c1 (stereo not drawn) [Example 112, N-[1-(5-{3-cyano-6-ethoxypyrazolo[1,5-a]pyridin-4-yl}pyridin-2-yl)-4-({4-[(1-{2-[2-(2,6-dioxopiperidin-3-yl)-1-oxo-2,3-dihydro-1H-isoindol-5-yl]acetyl}piperidin-4-yl)methyl]piperazin-1-yl}methyl)piperidin-4-yl]-2,5-difluorobenzamide]",> 90,2 to 10
"CCOc1cc(-c2ccc(N3CCC(CN4CCN(CC5CCN(C(=O)Cc6ccc7c(c6)C(=O)N(C6CCC(=O)NC6=O)C7)CC5)CC4)(NC(=O)c4cc(F)ccc4F)CC3)nc2)c2c(C#N)cnn2c1 (stereo not drawn) [Example 113, N-[1-(5-{3-cyano-6-ethoxypyrazolo[1,5-a]pyridin-4-yl}pyridin-2-yl)-4-({4-[(1-{2-[2-(2,6-dioxopiperidin-3-yl)-3-oxo-2,3-dihydro-1H-isoindol-5-yl]acetyl}piperidin-4-yl)methyl]piperazin-1-yl}methyl)piperidin-4-yl]-2,5-difluorobenzamide]",> 90,< 2
"CCOc1cc(-c2ccc(N3CCC(CN4CCN(CCC(=O)N5CCC(c6ccc7c(c6)C(=O)N(C6CCC(=O)NC6=O)C7=O)CC5)CC4)(NC(=O)c4cc(F)ccc4F)CC3)nc2)c2c(C#N)cnn2c1 (stereo not drawn) [Example 117, N-[1-(5-{3-cyano-6-ethoxypyrazolo[1,5-a]pyridin-4-yl}pyridin-2-yl)-4-{[4-(3-{4-[2-(2,6-dioxopiperidin-3-yl)-1,3-dioxo-2,3-dihydro-1H-isoindol-5-yl]piperidin-1-yl}-3-oxopropyl)piperazin-1-yl]methyl}piperidin-4-yl]-2,5-difluorobenzamide]",> 90,2 to 10
"CCOc1cc(-c2ccc(N3CCC(CN4CCC5(CCC(CC(=O)N6CCC(c7ccc8c(c7)CN(C7CCC(=O)NC7=O)C8=O)CC6)CC5)CC4)(NC(=O)c4cc(F)ccc4F)CC3)nc2)c2c(C#N)cnn2c1 (stereo not drawn) [Example 122, N-[1-(5-{3-cyano-6-ethoxypyrazolo[1,5-a]pyridin-4-yl}pyridin-2-yl)-4-{[9-(2-{4-[2-(2,6-dioxopiperidin-3-yl)-1-oxo-2,3-dihydro-1H-isoindol-5-yl]piperidin-1-yl}-2-oxoethyl)-3-azaspiro[5.5]undecan-3-yl]methyl}piperidin-4-yl]-2,5-difluorobenzamide]",> 90,2 to 10
"CCOc1cc(-c2ccc(N3CCC(CN4CCC5(CCC(CC(=O)N6CCN(c7ccc8c(c7)C(=O)N(C7CCC(=O)NC7=O)C8)CC6)CC5)CC4)(NC(=O)c4cc(F)ccc4F)CC3)nc2)c2c(C#N)cnn2c1 (stereo not drawn) [Example 123, N-[1-(5-{3-cyano-6-ethoxypyrazolo[1,5-a]pyridin-4-yl}pyridin-2-yl)-4-{[9-(2-{4-[2-(2,6-dioxopiperidin-3-yl)-3-oxo-2,3-dihydro-1H-isoindol-5-yl]piperazin-1-yl}-2-oxoethyl)-3-azaspiro[5.5]undecan-3-yl]methyl}piperidin-4-yl]-2,5-difluorobenzamide]",> 90,2 to 10

# Other lines, results leading:
Dmax [%],DC50 [nM],SMILES
60 to 90,< 2,"CCOc1cc(-c2ccc(N3CCC(CN4CCN(CC5CCN(C(=O)COc6ccc7c(c6)CN(C6CCC(=O)NC6=O)C7=O)CC5)CC4)(NC(=O)c4cc(F)ccc4F)CC3)nc2)c2c(C#N)cnn2c1 (stereo not drawn) [Example 114, N-[1-(5-{3-cyano-6-ethoxypyrazolo[1,5-a]pyridin-4-yl}pyridin-2-yl)-4-[(4-{[1-(2-{[2-(2,6-dioxopiperidin-3-yl)-1-oxo-2,3-dihydro-1H-isoindol-5-yl]oxy}acetyl)piperidin-4-yl]methyl}piperazin-1-yl)methyl]piperidin-4-yl]-2,5-difluorobenzamide]"
60 to 90,10 to 100,"CCOc1cc(-c2ccc(N3CCC(CN4CCN(CCC(=O)N5CCN(c6ccc7c(c6)C(=O)N(C6CCC(=O)NC6=O)C7)CC5)CC4)(NC(=O)c4cc(F)ccc4F)CC3)nc2)c2c(C#N)cnn2c1 (stereo not drawn) [Example 115, N-[1-(5-{3-cyano-6-ethoxypyrazolo[1,5-a]pyridin-4-yl}pyridin-2-yl)-4-{[4-(3-{4-[2-(2,6-dioxopiperidin-3-yl)-3-oxo-2,3-dihydro-1H-isoindol-5-yl]piperazin-1-yl}-3-oxopropyl)piperazin-1-yl]methyl}piperidin-4-yl]-2,5-difluorobenzamide]"
> 90,2 to 10,"CCOc1cc(-c2ccc(N3CCC(CN4CCN(CCC(=O)N5CCC(c6ccc7c(c6)C(=O)N(C6CCC(=O)NC6=O)C7)CC5)CC4)(NC(=O)c4cc(F)ccc4F)CC3)nc2)c2c(C#N)cnn2c1 (stereo not drawn) [Example 116, N-[1-(5-{3-cyano-6-ethoxypyrazolo[1,5-a]pyridin-4-yl}pyridin-2-yl)-4-{[4-(3-{4-[2-(2,6-dioxopiperidin-3-yl)-3-oxo-2,3-dihydro-1H-isoindol-5-yl]piperidin-1-yl}-3-oxopropyl)piperazin-1-yl]methyl}piperidin-4-yl]-2,5-difluorobenzamide]"
60 to 90,2 to 10,"CCOc1cc(-c2ccc(N3CCC(CN4CCN(C(=O)CCN5CCC(Oc6ccc7c(c6)CN(C6CCC(=O)NC6=O)C7=O)CC5)CC4)(NC(=O)c4cc(F)ccc4F)CC3)nc2)c2c(C#N)cnn2c1 (stereo not drawn) [Example 118, N-[1-(5-{3-cyano-6-ethoxypyrazolo[1,5-a]pyridin-4-yl}pyridin-2-yl)-4-({4-[3-(4-{[2-(2,6-dioxopiperidin-3-yl)-1-oxo-2,3-dihydro-1H-isoindol-5-yl]oxy}piperidin-1-yl)propanoyl]piperazin-1-yl}methyl)piperidin-4-yl]-2,5-difluorobenzamide]"
> 90,2 to 10,"CCOc1cc(-c2ccc(N3CCC(CN4CCN(C(=O)CCN5CC(c6ccc7c(c6)CN(C6CCC(=O)NC6=O)C7=O)C5)CC4)(NC(=O)c4cc(F)ccc4F)CC3)nc2)c2c(C#N)cnn2c1 (stereo not drawn) [Example 119, N-[1-(5-{3-cyano-6-ethoxypyrazolo[1,5-a]pyridin-4-yl}pyridin-2-yl)-4-{[4-(3-{3-[2-(2,6-dioxopiperidin-3-yl)-1-oxo-2,3-dihydro-1H-isoindol-5-yl]azetidin-1-yl}propanoyl)piperazin-1-yl]methyl}piperidin-4-yl]-2,5-difluorobenzamide]"
> 90,< 2,"CCOc1cc(-c2ccc(N3CCC(CN4CCN(C(=O)CCN5CC(Oc6ccc7c(c6)CN(C6CCC(=O)NC6=O)C7=O)C5)CC4)(NC(=O)c4cc(F)ccc4F)CC3)nc2)c2c(C#N)cnn2c1 (stereo not drawn) [Example 120, N-[1-(5-{3-cyano-6-ethoxypyrazolo[1,5-a]pyridin-4-yl}pyridin-2-yl)-4-({4-[3-(3-{[2-(2,6-dioxopiperidin-3-yl)-1-oxo-2,3-dihydro-1H-isoindol-5-yl]oxy}azetidin-1-yl)propanoyl]piperazin-1-yl}methyl)piperidin-4-yl]-2,5-difluorobenzamide]"
